Experimental data as given in PubChem BioAssay (NCI).
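All cell lines were grown in 96-well plates and treated with compound for 48 hours. At the GI50, growth is halved. TGI denotes the concentration required for complete inhibition of growth.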

Tests used:
Assay in all cases: NCI tumour cell line growth inhibition, 48 h
[1] = system: T-47D breast
[2] = system: SF-268 CNS
[3] = system: UACC-62 melanoma
[4] = system: HT29 colon
[5] = system: PC-3 prostate
[6] = system: HOP-92 NSCLC
[7] = system: HCC-2998 colon
[8] = system: MOLT-4 leukemia
[9] = system: BT-549 breast
[10] = system: HOP-62 NSCLC
[11] = system: NCI/ADR-RES ovarian
[12] = system: A498 renal
[13] = system: A549 NSCLC
[14] = system: UO-31 renal
[15] = system: SNB-19 CNS
[16] = system: KM12 colon
[17] = system: NCI-H23 lung
[18] = system: SN12C renal
[19] = system: HCT-15 colon
[20] = system: CCRF-CEM leukemia
[21] = system: ACHN renal
[22] = system: SF-295 CNS
[23] = system: DU-145 prostate
[24] = system: OVCAR-8 ovarian
[25] = system: NCI-H522 lung
[26] = system: RXF 393 renal
[27] = system: SK-MEL-28 melanoma
[28] = system: MCF7 breast
[29] = system: TK-10 renal
[30] = system: COLO 205 colon
[31] = system: RPMI-8226 leukemia
[32] = system: SF-539 CNS
[33] = system: IGROV1 ovarian
[34] = system: MDA-MB-435
[35] = system: CAKI-1 renal
[36] = system: K-562 leukemia
[37] = system: NCI-H460 lung
[38] = system: HL-60(TB) leukemia
[39] = system: SK-OV-3 ovarian
[40] = system: HS 578T breast
[41] = system: MALME-3M melanoma
[42] = system: OVCAR-5 ovarian
[43] = system: HCT-116 colon
[44] = system: OVCAR-3 ovarian
[45] = system: SW-620 colon
[46] = system: M14 melanoma
[47] = system: 786-0 renal
[48] = system: OVCAR-4 ovarian
[49] = system: EKVX NSCLC

Structure (SMILES): COc1ccc(-c2ccc(/C=N/n3c(C)n[nH]c3=S)o2)c([N+](=O)[O-])c1
- GI50 [1]: > 100 µM
- TGI [1]: > 100 µM
- GI50 [2]: 47.5 µM
- TGI [2]: > 100 µM
- GI50 [3]: > 100 µM
- TGI [3]: > 100 µM
- GI50 [4]: > 100 µM
- TGI [4]: > 100 µM
- GI50 [5]: > 100 µM
- TGI [5]: > 100 µM
- GI50 [6]: 12.4 µM
- TGI [6]: 45.4 µM
- GI50 [7]: > 100 µM
- TGI [7]: > 100 µM
- GI50 [8]: > 100 µM
- TGI [8]: > 100 µM
- GI50 [9]: > 100 µM
- TGI [9]: > 100 µM
- GI50 [10]: 46 µM
- TGI [10]: > 100 µM
- GI50 [11]: > 100 µM
- TGI [11]: > 100 µM
- GI50 [12]: > 100 µM
- TGI [12]: > 100 µM
- GI50 [13]: > 100 µM
- TGI [13]: > 100 µM
- GI50 [14]: > 100 µM
- TGI [14]: > 100 µM
- GI50 [15]: > 100 µM
- TGI [15]: > 100 µM
- GI50 [16]: > 100 µM
- TGI [16]: > 100 µM
- GI50 [17]: > 100 µM
- TGI [17]: > 100 µM
- GI50 [18]: > 100 µM
- TGI [18]: > 100 µM
- GI50 [19]: > 100 µM
- TGI [19]: > 100 µM
- GI50 [20]: > 100 µM
- TGI [20]: > 100 µM
- GI50 [21]: 93 µM
- TGI [21]: > 100 µM
- GI50 [22]: 36.3 µM
- TGI [22]: > 100 µM
- GI50 [23]: > 100 µM
- TGI [23]: > 100 µM
- GI50 [24]: 84 µM
- TGI [24]: > 100 µM
- GI50 [25]: > 100 µM
- TGI [25]: > 100 µM
- GI50 [26]: 32.8 µM
- TGI [26]: > 100 µM
- GI50 [27]: > 100 µM
- TGI [27]: > 100 µM
- GI50 [28]: > 100 µM
- TGI [28]: > 100 µM
- GI50 [29]: 69.1 µM
- TGI [29]: > 100 µM
- GI50 [30]: > 100 µM
- TGI [30]: > 100 µM
- GI50 [31]: > 100 µM
- TGI [31]: > 100 µM
- GI50 [32]: 39.4 µM
- TGI [32]: > 100 µM
- GI50 [33]: > 100 µM
- TGI [33]: > 100 µM
- GI50 [34]: > 100 µM
- TGI [34]: > 100 µM
- GI50 [35]: > 100 µM
- TGI [35]: > 100 µM
- GI50 [36]: > 100 µM
- TGI [36]: > 100 µM
- GI50 [37]: > 100 µM
- TGI [37]: > 100 µM
- GI50 [38]: > 100 µM
- TGI [38]: > 100 µM
- GI50 [39]: > 100 µM
- TGI [39]: > 100 µM
- GI50 [40]: > 100 µM
- TGI [40]: > 100 µM
- GI50 [41]: 54.1 µM
- TGI [41]: > 100 µM
- GI50 [42]: > 100 µM
- TGI [42]: > 100 µM
- GI50 [43]: > 100 µM
- TGI [43]: > 100 µM
- GI50 [44]: > 100 µM
- TGI [44]: > 100 µM
- GI50 [45]: > 100 µM
- TGI [45]: > 100 µM
- GI50 [46]: > 100 µM
- TGI [46]: > 100 µM
- GI50 [47]: 91.1 µM
- TGI [47]: > 100 µM
- GI50 [48]: > 100 µM
- TGI [48]: > 100 µM
- GI50 [49]: > 100 µM
- TGI [49]: > 100 µM
